Assay results published in patent publication US20250084079A1, “COMPOSITIONS AND METHODS FOR INHIBITION OF RAS” (TheRas, Inc., priority 2022, published 2025).
Read-outs that look alike come from different tables or passages of the source.

Assays:
[1] = target: T1, Avi-KRAS G12D/Q25A (1-169) GppNHp/3xFLAG-PI3KCA (157-299) (Homo sapiens, UniProt P01116, G12D/Q25A); experiment: RAS-effector PPI HTRF disruption assay, PI3KCA-GppNHp-KRAS G12D/Q25A; format: biochemical
T1 construct: 375 nM Avi-KRAS G12D/Q25A (1-169) GppNHp
Description: (§1) A protein:protein interaction (PPI) Homogeneous Time Resolved Fluorescence (HTRF) assay was used to determine the effectiveness of compounds of the present disclosure in disrupting KRAS protein and effector (RAF1 or PIK3 CA) binding.
(§2) The HTRF assay used the following reagents and proteins: (i) 375 nM Avi-KRAS G12D/Q25A (1-169) GppNHp/3×FLAG-PI3KCA (157-299); (ii) 100 nM Avi-KRAS G12D (1-169) GppNHp/RAF1 RBD-3×FLAG (52-151); (iii) 50 nM Avi-KRAS G12V (1-169) GppNHp/RAF1 RBD-3×FLAG (52-151); (iv) 50 nM Avi-KRAS WT (1-169) GppNHp/RAF1 RBD-3×FLAG (52-151); and (v) 35 nM Avi-PI3K RBD CA-3×FLAG; Assay Buffer: 50 mM Tris pH 7.5, 100 mM NaCl, 5 mM MgCl2, 0.1% BSA, 0.01% Tween, 1 mM TCEP, 10% DMSO; Bead Buffer: 50 mM Tris pH 7.5, 0.01% Tween 20; Assay volume: 20 μL (384 well plate-low volume format); and Compound titration: 100-0.02 μM, 3× dilution series.
(§3) The HTRF assay employed the following protocol:
(§4) Compounds were dispensed in assay plate (384-well, Grenier Bione #784075) using Echo (model 555) with dose response settings: 200 nL final volume, titration from 100 μM as a 10-point dilution series. Protein mix was prepared in assay buffer, and dispensed on plates, 10 μL per well, then incubated for 1 h at room temperature, with 700 rpm shaking. Reagents mix was prepared and dispensed on plates, 10 μL per well, then incubated for 1 h at room temperature, with 700 rpm shaking.
(§5) Plates were analyzed on an Envision plate reader using the following setting: Excitation 320 nm, Bandwidth […]; Emission 615 nm, Bandwidth […], Gain 100%, Flashes 100, Lag 60 μs. Data was reported as percentage of activity, with DMSO as 100%. Data was plotted and analyzed using Prism 8. The SPR Kd, biochemical Raf1-KRAS G12D/G12V/WT-GppNHP and PI3KCA-KRAS G12D/Q25A-GppNHp disruption assay IC50 of selected compounds described herein are shown in Table 4.

[2] = target: T2, Avi-KRAS WT (1-169) GppNHp/RAF1 RBD-3xFLAG (52-151) (Homo sapiens, UniProt P01116); experiment: RAS-effector PPI HTRF disruption assay, Raf1-GppNHp-KRAS WT; format: biochemical
T2 construct: 50 nM Avi-KRAS WT (1-169) GppNHp
Description: as §1, §2, §3, §4, §5

[3] = target: T3, Avi-KRAS G12V (1-169) GppNHp/RAF1 RBD-3xFLAG (52-151) (Homo sapiens, UniProt P01116, G12V); experiment: RAS-effector PPI HTRF disruption assay, Raf1-GppNHp-KRAS G12V; format: biochemical
T3 construct: 50 nM Avi-KRAS G12V (1-169) GppNHp
Description: as §1, §2, §3, §4, §5

[4] = test system: pERK in GP2d cells (KRAS G12D); experiment: Cell-based pERK HTRF assay in GP2d cell; details: 60 min incubation
Description: A pERK assay (Perkin Elmer) was used to determine the effectiveness of compounds in disrupting KRAS G12D protein/effector signaling in cells.
On Day 1, cells (GP2d) were seeded into 96-well plates at 3×10^4 cells/well in 80 μL complete growth media (DMEM, 10% FBS).
On Day 2, cells were treated with compounds at 0.25% DMSO. The source plate was created with compounds diluted in media at 5-fold the final assay concentration. The compounds were run in a 9-point concentration curve starting at 1 μM, with a half-log dilution between concentrations. 20 μL was transferred onto the cell plates (final volume in wells was 100 μL). Plates were harvested after 60 min incubation by aspirating media and adding kit-supplied 1× supplemented lysis buffer to all wells (50 μL per well). Plates were then placed on a plate shaker and incubated at 850 rpm for an additional 30 min.
Antibody mixture solution is prepared by diluting aliquoted d2 and Eu Cryptate antibodies 1:20 in kit supplied detection buffer, mix the diluted antibodies solutions (1:1 v:v). 4 μL of this solution is then added to a 384-well detection plate (Perkin Elmer; 6008230).
Samples were homogenized by pipetting up and down and then transferred (16 μL of cell lysates) from the 96-well cell culture plate to two wells of the HTRF 384-well detection plate containing the antibody solution. Plates were centrifuged (524 g for 1 min) and allowed to incubate between 4 and 24 h at room temperature. Maximum signal is reached after 4 h incubation time and remains stable over a period of 24 hours. Therefore, readings can be made between 4 and 24 h of incubation. Plates were centrifuged again (524 g for Imin), then analyzed on the EnVision plate reader using the following settings: Excitation 320 nm, Bandwidth 75 nm; Emission 615 nm, Bandwidth 85 nm; Gain 100%; Flashes 100; Lag 60 μs.

[5] = target: T4, Avi-KRAS G12D (1-169) GppNHp/RAF1 RBD-3xFLAG (52-151) (Homo sapiens, UniProt P01116, G12D); experiment: RAS-effector PPI HTRF disruption assay, Raf1-GppNHp-KRAS G12D; format: biochemical
T4 construct: 100 nM Avi-KRAS G12D (1-169) GppNHp
Description: as §1, §2, §3, §4, §5

T1 sequence (P01116 1-169 isoform P01116-2 G12D/Q25A): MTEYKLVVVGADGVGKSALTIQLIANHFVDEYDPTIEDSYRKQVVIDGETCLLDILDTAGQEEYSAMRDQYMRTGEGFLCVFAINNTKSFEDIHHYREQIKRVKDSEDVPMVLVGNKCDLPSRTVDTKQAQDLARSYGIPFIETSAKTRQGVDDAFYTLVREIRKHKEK
T2 sequence (P01116 1-169 isoform P01116-2): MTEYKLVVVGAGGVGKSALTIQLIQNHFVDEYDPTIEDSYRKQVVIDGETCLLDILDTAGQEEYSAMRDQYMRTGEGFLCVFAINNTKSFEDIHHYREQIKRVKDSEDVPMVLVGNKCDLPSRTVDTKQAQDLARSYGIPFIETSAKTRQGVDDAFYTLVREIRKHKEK
T4 sequence (P01116 1-169 isoform P01116-2 G12D): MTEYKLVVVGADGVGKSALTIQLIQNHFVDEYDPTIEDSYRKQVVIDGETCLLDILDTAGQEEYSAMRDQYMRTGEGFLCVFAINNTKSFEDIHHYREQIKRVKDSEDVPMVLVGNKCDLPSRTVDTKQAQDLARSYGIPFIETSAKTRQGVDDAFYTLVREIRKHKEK
T3 sequence (P01116 1-169 isoform P01116-2 G12V): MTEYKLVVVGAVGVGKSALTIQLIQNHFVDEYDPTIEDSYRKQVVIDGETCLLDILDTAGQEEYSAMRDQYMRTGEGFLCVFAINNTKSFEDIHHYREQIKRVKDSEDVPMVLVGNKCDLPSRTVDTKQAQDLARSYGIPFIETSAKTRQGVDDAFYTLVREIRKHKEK

Row | Compound | IC50 [1] [nM] | IC50 [2] [nM] | IC50 [3] [nM] | IC50 ([4]; GP2d, 1 h) [nM] | IC50 [5] [nM] | IC50 ([4]; read-out: pERK-Gp2D-1 hr) [nM]
1 | C[C@@H]1NCC[C@@H]1Oc1nc(OC[C@@]23CCCN2C[C@H](F)C3)nc2c(F)c(-c3ccc(F)c4sc(N)c(C#N)c34)c(Cl)cc12 [Compound 65] | 100 to 1000 | 100 to 1000 | 100 to 1000 | ≤ 100 | 100 to 1000 | 
2 | Nc1nc2c(-c3c(C(F)(F)F)cc4c(O[C@H]5CNCC5(F)F)nc(OC[C@@]56CCCN5C[C@H](F)C6)nc4c3F)ccc(F)c2s1 (atropisomer, axis not shown) [Compound 29] | > 10000 | > 10000 | > 10000 |  | > 10000 | > 1000
3 | N#Cc1c(N)sc2c(F)ccc(-c3c(Cl)cc4c(O[C@@H]5CN[C@@H](CO)C5)nc(OC[C@@]56CCCN5C[C@H](F)C6)nc4c3F)c12 (atropisomer, axis not shown) [Compound 68] | > 10000 | > 10000 | > 10000 |  | > 10000 | > 1000
4 | C[C@@H]1C[C@H](Oc2nc(OC[C@@]34CCCN3C[C@H](F)C4)nc3c(F)c(-c4ccc(F)c5sc(N)c(C#N)c45)c(Cl)cc23)CN1 (atropisomer, axis not shown) [Compound 60] | 100 to 1000 | 100 to 1000 | 100 to 1000 |  | 100 to 1000 | ≤ 100
5 | N#Cc1c(N)sc2c(F)ccc(-c3c(Cl)cc4c(O[C@@H]5CN[C@H](CO)C5)nc(OC[C@@]56CCCN5C[C@H](F)C6)nc4c3F)c12 [Compound 70] | 100 to 1000 | 100 to 1000 | 100 to 1000 | 100 to 1000 | ≤ 100 | 
6 | Nc1nc2c(-c3c(C(F)(F)F)cc4c(O[C@H]5CNCC5(F)F)nc(OC[C@@]56CCCN5C[C@H](F)C6)nc4c3F)ccc(F)c2s1 [Compound 28] | > 10000 | 1000 to 10000 | > 10000 |  | 1000 to 10000 | 100 to 1000
7 | N#Cc1c(N)sc2c(F)ccc(-c3c(C(F)(F)F)cc4c(O[C@@H]5CCN[C@@H]5CF)nc(OC[C@@]56CCCN5C[C@H](F)C6)nc4c3F)c12 [Compound 62] | 1000 to 10000 | 100 to 1000 | 1000 to 10000 | ≤ 100 | 100 to 1000 | 
8 | Nc1nc2c(-c3cc4nc(OC[C@@]56CCCN5C[C@H](F)C6)nc(O[C@H]5CNC[C@@H]5F)c4cc3C(F)(F)F)ccc(F)c2s1 [Compound 30] | > 10000 | > 10000 | > 10000 | > 1000 | 1000 to 10000 | 
9 | N#Cc1c(N)sc2c(F)ccc(-c3c(C(F)(F)F)cc4c(O[C@@H]5CCNC5)nc(N5CC(N6CC7(CC7)C6)C5)nc4c3F)c12 [Compound 67] | > 10000 | 100 to 1000 | 1000 to 10000 | 100 to 1000 | 100 to 1000 | 
10 | N#Cc1c(N)sc2c(F)ccc(-c3cc4nc(OC[C@@]56CCCN5C[C@H](F)C6)nc(O[C@H]5CNC[C@@H]5F)c4cc3C(F)(F)F)c12 [Compound 46] | > 10000 | > 10000 | > 10000 | > 1000 | 100 to 1000 | 
11 | N#Cc1c(N)sc2c(F)ccc(-c3ccc4c(O[C@@H]5CCNC5)nc(OC[C@@]56CCCN5C[C@H](F)C6)nc4c3F)c12 [Compound 48] | 100 to 1000 | 1000 to 10000 | > 10000 | 100 to 1000 | 100 to 1000 | 
